Columns and labels:
hCMEC/D3 cells = type: in vitro ADME, human; conditions: either individually or in combination, p<0.05, two-way ANOVA
[1] = cited from earlier work

## C[C@@H]1CCO[C@H]2Cn3cc(C(=O)NCc4ccc(F)cc4F)c(=O)c(O)c3C(=O)N12 [Dolutegravir]
hCMEC/D3 cells
  Intracellular accumulation compared with tenofovir or emtricitabine: significantly higher
[1]
  LogP: 1.10

— publication PMC6486649 (Analytica chimica acta, 2019)
